In US20180105838A1, “PROCESS FOR DE NOVO MICROBIAL SYNTHESIS OF TERPENES” (BASF SE, priority 2015, published 2018):

What was measured:
[1] = tested on: Methylobacterium extorquens AM1; assay type: cell-based
Method: (§1) 1.6 Dodecane and α-Humulene Tolerance of M. extorquens AM1
M. extorquens AM1 precultures were cultured in test tubes with 5 ml methanol minimal medium (MM) for 48 h. The tolerance of M. extorquens AM1 towards 20% (v/v) dodecane was studied by growth comparison ( OD600) of cultures containing 15 ml MM and cultures with 12 ml MM and 3 ml dodecane. The cultures for the growth comparison with and without dodecane were inoculated from one preculture.

[2] = tested on: Methylobacterium extorquens AM1; assay: α-humulene tolerance of M. extorquens AM1 (growth rate comparison, OD600); assay type: cell-based; details: FIG. 3
Method: as §1
The α-humulene tolerance was tested in two ways: tolerance towards α-humulene added directly to the aqueous phase and tolerance towards α-humulene dissolved in the organic dodecane layer. For the first experiment, pure α-humulene dissolved in ethanol was added to 100 ml baffled shaker flasks containing 15 ml MM with end concentrations of α-humulene of 1000, 500, 250, 100, 50, 25, 10 and 5 mg/L. Corresponding quantities of ethanol were added to the MM as negative controls. The flasks with the different α-humulene concentrations and the corresponding negative controls were inoculated with a preculture without α-humulene to an OD600 of 0.1. The OD600 was recorded over 30 h.
For the second said experiment, pure α-humulene was dissolved in dodecane and solutions with 1000, 500, 100, 50 and 10 mg/L α-humulene prepared. Two cultures each with 12 ml MM and 3 ml dodecane for each α-humulene concentration were inoculated to an OD600 of 0.1 from a preculture of M. extorquens AM1 without dodecane. Cultures with dodecane without α-humulene were used as negative controls. OD600 was measured over 30 h.
Terpenes often have toxic effects on bacteria. The toxicity of α-humulene to M. extorquens was studied by growth analyses in the presence of different α-humulene concentrations. […]

SMILES | toxic effects or influence on growth [1] | growth-inhibiting effect (growth rate μ compared with μmax without α-humulene) ([2]; α-humulene dissolved directly in the aqueous phase, even at concentrations of 1 g/l) | influence on growth (growth rate μ compared with μmax without α-humulene) ([2]; α-humulene dissolved in the dodecane phase as second organic phase)
CCCCCCCCCCCC [dodecane] | without any toxic effects or influence on growth being observable | – | –
C/C1=C\CC/C(C)=C/CC(C)(C)/C=C/C1 [α-humulene] | – | only minimal growth-inhibiting effects | slightly lesser influence than in the aqueous phase
